From patent US20250195521A1 (Revolution Medicines, Inc., priority 2020, published 2025) come the findings set out here.

Molecules are shown by their SMILES. Like-named read-outs stand apart in the source and are kept apart here. Some results are limits rather than exact numbers.

The IC50 is the concentration that inhibits the measured activity by half. What is called EC50 is the concentration needed to bring the measured effect to its halfway point.

Test [1] deals with NCI-H358 cells (K-Ras G12C). Kind of test: CellTiter-Glo cell viability, NCI-H358. The test is classed as cell-based, human. As to conditions: K-Ras G12C, 5-day treatment, read-out: H358 Cell Viability IC50. In a few lines:
(§1)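 Compounds dispensed directly onto seeded cells; on day 5 plates equilibrated ~30 min to room temperature and luminescence read. Signal normalized to DMSO average (%) and fitted by four-parameter logistic.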
Background: ATP-based viability assays read luminescence as a measure of living cells.

In test [2] the test system is Capan-1 cells (K-Ras G12V). The test is described as follows: CellTiter-Glo cell viability, Capan-1. The test is classed as cell-based, human. The settings on record: K-Ras G12V, 5-day treatment, read-out: Capan-1 Cell Viability IC50. In a few lines:
as §1

In the next test the target is KRAS G12D (Homo sapiens (Human), UniProt P01116+P62937, G12D). The test is described as follows: Ras-Raf disruption/FRET/MOA assay (BRAF RBD, Cyclophilin A). The test is classed as biochemical. As to conditions: read-out: KRAS G12D FRET IC50. In a few lines: (§2)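 Ras-GMPPNP (12.5 nM), BRAF RBD (50 nM) and 25 μM Cyclophilin A were incubated with compound for 3 h at 25° C, then detected 1.5 h with anti-His Eu and anti-GST APC; IC50 values follow from the reduced TR-FRET ratio.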

The target of another test is KRAS G13C (Homo sapiens (Human), UniProt P01116+P62937, G13C). Described as above. Type of test: biochemical. As to conditions: read-out: KRAS G13C FRET IC50. In a few lines: as §2
In another test the target is KRAS Q61H (Homo sapiens (Human), UniProt P01116+P62937, Q61H). Described as above. Type of test: biochemical. In a few lines: as §2
The target in the next test is NRAS Q61K (Homo sapiens (Human), UniProt P01111+P62937, Q61K). The description is as above. Type of test: biochemical. A digest of the protocol: (§3)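 First, 25 μM Cyclophilin A, 12.5 nM His6-Ras-GMPPNP and 50 nM GST-BRAF RBD are mixed with diluted compound at pH 7.3. Next, 3 h at 25° C. Then 10 nM anti-His Eu-W1024 plus 50 nM anti-GST allophycocyanin for 1.5 h before TR-FRET reading.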

Another test deals with NRAS Q61R (Homo sapiens (Human), UniProt P01111+P62937, Q61R). Described as above. Type of test: biochemical. A digest of the protocol:
as §3

For a further test, the target named is NRAS WT (Homo sapiens (Human), UniProt P01111+P62937). The description is as above. Type of test: biochemical. A digest of the protocol:
as §3

The subject of test [3] is K-Ras G12C (NCI-H358 cells). The test is described as follows: Potency assay: pERK in NCI-H358 cells. As to conditions: NCI-H358 cells, 4 hours; read-out: pERK EC50 (H358 KRAS G12C). Type of test: cell-based, human. A digest of the protocol:
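Cells plated the day before were exposed for 4 h at 37° C, 5% CO2 to a 10-point, 3-fold DMSO dilution series (10 mM top stock), in duplicate. Phospho-ERK was read by AlphaLISA SureFire Ultra or by In-Cell Western with DRAQ5 DNA stain, and IC50 came from a 4-parameter sigmoidal fit.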

A further test concerns the target KRAS G12C (Homo sapiens (Human), UniProt P01116+P62937, G12C). Kind of test: Ras-Raf disruption/FRET/MOA assay (BRAF RBD, Cyclophilin A). Type of test: biochemical. The settings on record: read-out: KRAS G12C FRET IC50. A digest of the protocol:
as §2

Another test deals with KRAS G12S (Homo sapiens (Human), UniProt P01116+P62937, G12S). The test is described as above. The test is classed as biochemical. The settings on record: read-out: KRAS G12S FRET IC50. In a few lines:
as §2

A further test has as its target KRAS G12V (Homo sapiens (Human), UniProt P01116+P62937, G12V). The test is described as above. As to conditions: read-out: KRAS G12V FRET IC50. The test is classed as biochemical. A digest of the protocol:
as §2

A further test deals with KRAS G13D (Homo sapiens (Human), UniProt P01116+P62937, G13D). The test is described as above. As to conditions: read-out: KRAS G13D FRET data IC50. Type of test: biochemical. A digest of the protocol: as §2
A further test addresses KRAS WT (Homo sapiens (Human), UniProt P01116+P62937). The description is as above. As to conditions: read-out: KRAS WT FRET data IC50. The test is classed as biochemical. In a few lines: as §2
In another test the target is NRAS G12C (Homo sapiens (Human), UniProt P01111+P62937, G12C). The description is as above. The test is classed as biochemical. As to conditions: read-out: NRAS G12C FRET data IC50. In a few lines: as §3
NRAS G12C, sequence (P01111 whole entry G12C): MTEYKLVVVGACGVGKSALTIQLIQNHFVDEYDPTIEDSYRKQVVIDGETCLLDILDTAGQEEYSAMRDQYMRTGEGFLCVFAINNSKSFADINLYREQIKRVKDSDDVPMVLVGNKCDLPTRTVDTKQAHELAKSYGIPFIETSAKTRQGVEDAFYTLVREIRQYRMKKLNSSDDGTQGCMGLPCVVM
NRAS G12C, sequence (P62937 whole entry): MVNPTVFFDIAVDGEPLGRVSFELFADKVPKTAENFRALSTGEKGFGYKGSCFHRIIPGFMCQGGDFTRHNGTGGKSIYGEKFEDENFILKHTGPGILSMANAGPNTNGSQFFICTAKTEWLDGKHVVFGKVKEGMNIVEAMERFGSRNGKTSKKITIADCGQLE

KRAS WT, sequence (P01116 other isoform, or with tags, fused parts or gaps): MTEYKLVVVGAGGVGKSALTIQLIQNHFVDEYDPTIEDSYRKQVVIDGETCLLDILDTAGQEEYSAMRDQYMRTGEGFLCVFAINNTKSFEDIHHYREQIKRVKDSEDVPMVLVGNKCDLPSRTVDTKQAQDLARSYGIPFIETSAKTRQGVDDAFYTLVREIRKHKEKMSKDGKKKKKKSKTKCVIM
KRAS WT, sequence (P62937 whole entry): as the sequence (P62937 whole entry) above
KRAS G12C, sequence (P01116-2 other isoform, or with tags, fused parts or gaps G12C): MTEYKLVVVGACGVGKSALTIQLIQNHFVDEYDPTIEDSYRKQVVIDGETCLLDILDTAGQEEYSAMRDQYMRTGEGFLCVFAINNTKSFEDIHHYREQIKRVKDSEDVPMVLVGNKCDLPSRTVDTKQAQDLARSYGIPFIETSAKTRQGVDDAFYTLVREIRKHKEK
KRAS G12C, sequence (P62937 whole entry): as the sequence (P62937 whole entry) above
KRAS G13D, sequence (P01116 other isoform, or with tags, fused parts or gaps G13D): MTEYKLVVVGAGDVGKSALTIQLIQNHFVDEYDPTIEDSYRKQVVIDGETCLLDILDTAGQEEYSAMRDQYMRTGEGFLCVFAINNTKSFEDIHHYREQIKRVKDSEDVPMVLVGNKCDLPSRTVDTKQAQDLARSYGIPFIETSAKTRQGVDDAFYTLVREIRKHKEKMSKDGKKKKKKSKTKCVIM
KRAS G13D, sequence (P62937 whole entry): as the sequence (P62937 whole entry) above
KRAS Q61H, sequence (P01116 other isoform, or with tags, fused parts or gaps Q61H): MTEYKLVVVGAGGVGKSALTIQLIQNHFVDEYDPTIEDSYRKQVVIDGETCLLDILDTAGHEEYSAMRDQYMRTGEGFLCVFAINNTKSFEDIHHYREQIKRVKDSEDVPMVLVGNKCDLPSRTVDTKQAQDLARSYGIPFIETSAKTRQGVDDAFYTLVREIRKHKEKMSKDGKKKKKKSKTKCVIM
KRAS Q61H, sequence (P62937 whole entry): as the sequence (P62937 whole entry) above
NRAS Q61K, sequence (P01111 whole entry Q61K): as the sequence (P01111 whole entry G12C) above, with C12G, Q61K counted along it
NRAS Q61K, sequence (P62937 whole entry): as the sequence (P62937 whole entry) above
NRAS WT, sequence (P01111 whole entry): as the sequence (P01111 whole entry G12C) above, with C12G counted along it
NRAS WT, sequence (P62937 whole entry): as the sequence (P62937 whole entry) above
NRAS Q61R, sequence (P01111 whole entry Q61R): as the sequence (P01111 whole entry G12C) above, with C12G, Q61R counted along it
NRAS Q61R, sequence (P62937 whole entry): as the sequence (P62937 whole entry) above
KRAS G12V, sequence (P01116 other isoform, or with tags, fused parts or gaps G12V): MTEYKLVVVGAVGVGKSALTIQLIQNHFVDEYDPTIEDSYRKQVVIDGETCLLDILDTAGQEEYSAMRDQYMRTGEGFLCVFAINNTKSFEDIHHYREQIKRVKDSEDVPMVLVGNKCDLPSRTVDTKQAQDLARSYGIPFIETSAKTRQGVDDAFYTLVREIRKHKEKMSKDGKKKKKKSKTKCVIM
KRAS G12V, sequence (P62937 whole entry): as the sequence (P62937 whole entry) above
KRAS G12S, sequence (P01116 other isoform, or with tags, fused parts or gaps G12S): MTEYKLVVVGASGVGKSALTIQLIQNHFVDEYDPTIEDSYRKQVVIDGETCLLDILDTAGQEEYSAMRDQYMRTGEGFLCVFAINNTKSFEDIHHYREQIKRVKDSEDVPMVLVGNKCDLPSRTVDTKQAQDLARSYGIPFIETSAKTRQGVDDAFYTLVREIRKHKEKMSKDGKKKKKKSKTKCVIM
KRAS G12S, sequence (P62937 whole entry): as the sequence (P62937 whole entry) above
KRAS G13C, sequence (P01116 other isoform, or with tags, fused parts or gaps G13C): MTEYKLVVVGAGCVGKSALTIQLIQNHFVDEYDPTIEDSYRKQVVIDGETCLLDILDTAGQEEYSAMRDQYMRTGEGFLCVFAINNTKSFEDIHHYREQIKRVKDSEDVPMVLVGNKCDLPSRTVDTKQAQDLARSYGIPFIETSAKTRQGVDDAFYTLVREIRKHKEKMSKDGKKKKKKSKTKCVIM
KRAS G13C, sequence (P62937 whole entry): as the sequence (P62937 whole entry) above
KRAS G12D, sequence (P01116 other isoform, or with tags, fused parts or gaps G12D): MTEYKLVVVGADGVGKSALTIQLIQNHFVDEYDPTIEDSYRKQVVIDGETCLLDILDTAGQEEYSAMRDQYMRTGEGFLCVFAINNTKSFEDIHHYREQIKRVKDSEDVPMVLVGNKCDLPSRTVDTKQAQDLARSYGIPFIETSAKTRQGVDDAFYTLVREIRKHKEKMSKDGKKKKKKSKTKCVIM
KRAS G12D, sequence (P62937 whole entry): as the sequence (P62937 whole entry) above

As to `CCn1c(-c2cccnc2[C@H](C)OC)c2c3cc(ccc31)-c1cc(O)cc(c1)C[C@H](NC(=O)[C@H](C(C)C)N(C)C(=O)N1CC(N(C)C)C1)C(=O)N1CCC[C@H](N1)C(=O)OCC(C)(C)C2` [Compound A170], the 50% inhibitory concentration (IC50) in test [1] was 10 to 100 nM; in [2] it was 10 to 100 nM; on KRAS G12D, 1000 to 10000 nM; on KRAS G13C, 100 to 1000 nM; against KRAS Q61H it was 100 to 1000 nM; against NRAS Q61K it was 10 to 100 nM. In addition, the IC50 against NRAS Q61R and against NRAS WT was 100 to 1000 nM each time. For the same compound, the 50% effective concentration (EC50) in [3] was less than 5000 nM.

As to `CCn1c(-c2cccnc2[C@H](C)OC)c2c3cc(ccc31)-c1csc(n1)C[C@H](NC(=O)N1CCOCC1)C(=O)N1CCC[C@H](N1)C(=O)OCC(C)(C)C2` [Compound A270], the half-inhibitory concentration (IC50) fell in the range of 100 to 1000 nM in [1] (Homo sapiens, NCI-H358, 120 h); 1000 to 10000 nM in test [2] (Homo sapiens, CAPAN-1, 120 h); 100 to 1000 nM on KRAS G12C; 100 to 1000 nM on KRAS G12D; 100 to 1000 nM at KRAS G12S; 100 to 1000 nM on KRAS G12V. The IC50 at KRAS G13C, at KRAS G13D, at KRAS Q61H, on KRAS WT, at NRAS G12C and against NRAS Q61K was 100 to 1000 nM in each case. In addition, the 50% inhibitory concentration (IC50) on NRAS Q61R and at NRAS WT was 100 to 1000 nM each time.

Take `CCn1c(-c2cccnc2[C@H](C)OC)c2c3cc(ccc31)-c1csc(n1)C[C@H](NC(=O)[C@H](C(C)C)N(C)C(=O)N1[C@H](C)COC[C@@H]1C)C(=O)N1CCC[C@H](N1)C(=O)OCC(C)(C)C2` [Compound A276]: the half-maximal inhibitory concentration (IC50) in test [1] (Homo sapiens, NCI-H358, 120 h) was 100 to 1000 nM; in [2] (Homo sapiens, CAPAN-1, 120 h) it was 100 to 1000 nM; on KRAS G12C it was 100 to 1000 nM; on KRAS G12D it was 1000 to 10000 nM; on KRAS G12S it was 100 to 1000 nM; at KRAS G12V it was 1000 to 10000 nM. Besides, the half-maximal inhibitory concentration (IC50) at KRAS G13C lay in the range of 100 to 1000 nM; at KRAS G13D it was 1000 to 10000 nM; against KRAS Q61H, 100 to 1000 nM; on KRAS WT, 100 to 1000 nM; on NRAS G12C it was 100 to 1000 nM; on NRAS Q61K, 100 to 1000 nM. For the same compound, the half-maximal inhibitory concentration (IC50) against NRAS Q61R and at NRAS WT was 100 to 1000 nM throughout.

On to `CCn1c(-c2cccnc2[C@H](C)OC)c2c3cc(ccc31)-c1csc(n1)C[C@H](NC(=O)[C@H](C(C)C)N(C)C(=O)N1CCS(=O)(=O)CC1)C(=O)N1CCC[C@H](N1)C(=O)OCC(C)(C)C2` [Compound A357], for which the IC50 in [1] (Homo sapiens, NCI-H358, 120 h) fell in the range of 10 to 100 nM; in [2] (Homo sapiens, CAPAN-1, 120 h), 10 to 100 nM; at KRAS G12C, 100 to 1000 nM; on KRAS G12D, 1000 to 10000 nM; on KRAS G12S, 100 to 1000 nM; at KRAS G12V, 100 to 1000 nM. The IC50 on KRAS G13C lay in the range of 100 to 1000 nM; at KRAS G13D it was 100 to 1000 nM; against KRAS Q61H, 100 to 1000 nM; at KRAS WT it was 100 to 1000 nM; on NRAS G12C, 10 to 100 nM; at NRAS Q61K it was 100 to 1000 nM. For the same compound, the 50% inhibitory concentration (IC50) at NRAS Q61R and on NRAS WT was 100 to 1000 nM in each case.

Take `CCn1c(-c2cccnc2[C@H](C)OC)c2c3cc(ccc31)-c1csc(n1)C[C@H](NC(=O)[C@H](C(C)C)N(C)C(=O)[C@@H]1[C@@H]3CN(C)C[C@@H]31)C(=O)N1CCC[C@H](N1)C(=O)OCC(C)(C)C2` [Compound A447]: the IC50 in test [1] (Homo sapiens, NCI-H358, 120 h) was 100 to 1000 nM; in test [2] (Homo sapiens, CAPAN-1, 120 h) it was 100 to 1000 nM; on KRAS G12C, 100 to 1000 nM; at KRAS G12D, 100 to 1000 nM; on KRAS G12S, 100 to 1000 nM; on KRAS G12V, 1000 to 10000 nM. Also, the 50% inhibitory concentration (IC50) on KRAS G13C, on KRAS G13D, on KRAS Q61H, on KRAS WT, on NRAS G12C and against NRAS Q61K was 100 to 1000 nM each time. The IC50 on NRAS Q61R lay in the range of 1000 to 10000 nM; against NRAS WT, 100 to 1000 nM.
